Measured values taken from PubChem BioAssay (NCI).
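Test compounds were applied to cells in 96-well plates for 48 hours at 5 doses. The concentration for full growth arrest is given as TGI.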

How the values were obtained:
Experiment in all cases: growth of human tumour cells (NCI), 48 h
[1] = test system: BT-549 breast
[2] = test system: DU-145 prostate
[3] = test system: HCT-15 colon
[4] = test system: HOP-92 NSCLC
[5] = test system: LOX IMVI melanoma
[6] = test system: MCF7 breast
[7] = test system: MDA-MB-435
[8] = test system: MDA-N
[9] = test system: NCI/ADR-RES ovarian
[10] = test system: PC-3 prostate
[11] = test system: T-47D breast
[12] = test system: ACHN renal
[13] = test system: DLD-1 colon
[14] = test system: DMS 273 small cell lung
[15] = test system: KM12 colon
[16] = test system: KM20L2 colon
[17] = test system: M19-MEL melanoma
[18] = test system: NCI-H522 lung
[19] = test system: XF 498 CNS
[20] = test system: HOP-18 NSCLC

Compound	TGI [1] [µM]	TGI [2] [µM]	TGI [3] [µM]	TGI [4] [µM]	TGI [5] [µM]	TGI [6] [µM]	TGI [7] [µM]	TGI [8] [µM]	TGI [9] [µM]	TGI [10] [µM]	TGI [11] [µM]	TGI [12] [µM]	TGI [13] [µM]	TGI [14] [µM]	TGI [15] [µM]	TGI [16] [µM]	TGI [17] [µM]	TGI [18] [µM]	TGI [19] [µM]	TGI [20] [µM]
O=c1oc2cc(O)ccc2c(O)c1Cc1c(O)c2ccc(O)cc2oc1=O	> 100	> 100	> 100	> 100	> 100	> 100	> 100	> 100	> 100	> 100	> 100									
CCC1NC(N=Nc2ccc([N+](=O)[O-])cc2)(P(=O)(OC(C)C)OC(C)C)OC1=O (stereo not drawn)				> 100								> 100	> 100	> 100	> 100	> 100	> 100	> 100	> 100	
Cc1ccc2c(=O)c3ccccc3sc2c1					> 100							> 100	> 100	> 100	> 100	> 100	> 100	> 100		> 100
CC1=CC2c3cccc4[nH]cc(c34)CC2N(C)C1 (stereo not drawn)			> 100	> 80.7	> 100	> 100			> 100				> 88.2	> 100	> 100	> 100	> 100	> 100	99.1	82.4
O=C(O)C1CCCCN1c1ccccc1[N+](=O)[O-] (stereo not drawn)			> 100	> 100	> 100							> 100	> 100	> 100		> 100	> 100	> 100	> 100	> 100
CN(Cc1cnc2c(N)nc(N)nc2n1)c1ccc(Cl)cc1	> 100	> 100	> 100			> 100	> 100	> 100	> 100	> 100	> 100	> 100			> 100					
C[C@@H]1CC[C@@]2(OC1)O[C@H]1C[C@H]3[C@@H]4CC[C@H]5C[C@@H](OC6OC(CO)C(OC7OC(CO)C(O)C(OC8OCC(O)C(O)C8O)C7OC7OC(CO)C(O)C(O)C7O)C(O)C6O)[C@H](O)C[C@]5(C)[C@H]4CC[C@]3(C)[C@H]1[C@@H]2C (stereo partly drawn)	7.47	13.9	> 33.9	66.5	7.89	1.68	31.8	28.3	12.6	15.3	28	8.87			23.6			2.05		
